The record followed here is patent US9139532B2, “Pyrazolyl guanidine F1F0-atpase inhibitors and therapeutic uses thereof” (Lycera Corporation, priority 2010, dated 2015).

For one experiment, the system named is Ramos cells. Nature of the experiment: Cytotoxicity in Ramos cells. The format is cell-based. The following applies: cytotoxicity in Ramos cells, read-out: Ramos Cell EC50.
For another experiment, the target named is T1, F1F0-ATPase (Bos taurus, UniProt P13621).
T1 construct: from tissue
Nature of the experiment: Inhibition of F1F0-ATPase activity in synthesizing ATP. The format is biochemical. As to conditions: inhibition of ATP synthesis by F1F0-ATPase; read-out: ATP Syn IC50.

Molecules are shown by their SMILES. pEC50, pIC50: −log10 of the molar value. Where two headings read alike, the source gives them in different places.

In general, pEC50 refers to −log10 of the EC50, conventionally taken in molar units. A word on the pIC50: it is the IC50 on a negative log10 scale, so that one unit is a factor of ten. With `CC(C)(C)N/C(=N/C(=O)c1ccc(C#N)cc1)Nc1cc(-c2ccc(F)cc2)[nH]n1` [Compound A-529], the pEC50 in the experiment with Ramos cells was less than 5.00. Also, at F1F0-ATPase, the pIC50 was more than 5.00.
Taken in the same sequence, the figures for `CC(C)(CO)N/C(=N/C(=O)c1ccc(F)cc1)Nc1cc(C(F)(F)F)[nH]n1` [Compound A-531] were less than 5.00 and more than 5.00.
In the case of `O=C(N=C(Nc1cc(C(F)(F)F)n[nH]1)N1CCCC1)c1ccc(C(F)(F)F)cc1` [Compound A-532], the pEC50 in the experiment with Ramos cells (Homo sapiens) is less than 5.00. Also, the pIC50 on F1F0-ATPase is more than 5.00.
In the same order, the values of `COC[C@H](C)NC(=NC(=O)c1ccc(F)cc1)Nc1cc(-c2ccc(F)cc2)n[nH]1` [Compound A-533] are more than 5.00 and more than 5.00.
As to `COC[C@H](C)N/C(=N/C(=O)c1ccc(C)cc1)Nc1cc(C(F)(F)F)[nH]n1` [Compound A-534], the pEC50 in the experiment with Ramos cells was more than 5.00. Also, the negative-log IC50 (pIC50) at F1F0-ATPase is more than 5.00.
For the molecule `COC[C@H](C)N/C(=N/C(=O)c1ccc(C)c(F)c1)Nc1cc(C(F)(F)F)[nH]n1` [Compound A-535], in the experiment with Ramos cells, the negative-log EC50 (pEC50) was more than 5.00. Further, the pIC50 at F1F0-ATPase is more than 5.00.
As to `COC[C@H](C)N/C(=N/C(=O)c1ccc(OC)cc1)Nc1cc(C(F)(F)F)[nH]n1` [Compound A-536], the pEC50 with Ramos cells was more than 5.00. For the same molecule, the negative logarithm of the IC50 (pIC50) on F1F0-ATPase was more than 5.00.
Turning to `COCC(C)NC(=NC(=O)c1cccc(OC)c1)Nc1cc(C(F)(F)F)n[nH]1` (stereo not drawn) [Compound A-537], the pEC50 in the experiment on Ramos cells (Homo sapiens) is more than 5.00. In addition, the pIC50 on F1F0-ATPase was more than 5.00.
Regarding `CC(C)(CO)N/C(=N/C(=O)c1ccc(F)cc1)Nc1cc(-c2ccc(F)cc2)n[nH]1` [Compound A-538], the pEC50 in the experiment on Ramos cells (Homo sapiens) was less than 5.00. For the same molecule, on F1F0-ATPase, the negative logarithm of the IC50 (pIC50) is more than 5.00.
Regarding `COc1ccc(C(=O)/N=C(\Nc2cc(-c3ccc(F)cc3)[nH]n2)NC(C)(C)C)cc1` [Compound A-539], the pEC50 with Ramos cells was more than 5.00. Besides, the negative logarithm of the IC50 (pIC50) on F1F0-ATPase was more than 5.00.
On to `COc1cccc(C(=O)N=C(Nc2cc(-c3ccc(F)cc3)n[nH]2)NC(C)(C)C)c1` [Compound A-540], for which the negative-log EC50 (pEC50) with Ramos cells (Homo sapiens) is more than 5.00. Moreover, the pIC50 on F1F0-ATPase was more than 5.00.
As to `COc1ccc(C(=O)N=C(NCc2ccc(F)cc2Cl)Nc2cc(C(F)(F)F)n[nH]2)cc1` [Compound A-541], the pEC50 with Ramos cells (Homo sapiens) is more than 5.00. Also, at F1F0-ATPase, the pIC50 is more than 5.00.
Take `COc1cccc(C(=O)N=C(NCc2ccc(F)cc2Cl)Nc2cc(C(F)(F)F)n[nH]2)c1` [Compound A-542]: the pEC50 in the experiment on Ramos cells (Homo sapiens) is more than 5.00. For the same molecule, the pIC50 at F1F0-ATPase was more than 5.00.
`COc1ccccc1C(=O)N=C(NCc1ccc(F)cc1Cl)Nc1cc(C(F)(F)F)n[nH]1` [Compound A-543]: the negative-log EC50 (pEC50) in the experiment on Ramos cells (Homo sapiens) was more than 5.00. Further, the negative logarithm of the IC50 (pIC50) at F1F0-ATPase was more than 5.00.
Regarding `CC(C)(C)NC(=NC(=O)c1ccccc1)Nc1cc(C(F)(F)F)n[nH]1` [Compound A-544], the negative logarithm of the EC50 (pEC50) in the experiment with Ramos cells (Homo sapiens) is more than 5.00. Further, the pIC50 at F1F0-ATPase is more than 5.00.
Take `O=C(/N=C(\Nc1cc(C(F)(F)F)[nH]n1)NC1CCCC1)c1ccccc1` [Compound A-545]: the pEC50 with Ramos cells was more than 5.00. The pIC50 on F1F0-ATPase was more than 5.00.
Turning to `Cc1ccc(C(=O)/N=C(\Nc2cc(C(F)(F)F)[nH]n2)NC2CCCC2)cc1F` [Compound A-546], the pEC50 with Ramos cells is more than 5.00. In addition, the pIC50 on F1F0-ATPase was more than 5.00.
As for `Cc1ccc(C(=O)/N=C(\Nc2cc(C(F)(F)F)[nH]n2)NC2CCCC2)cc1` [Compound A-547], the negative-log EC50 (pEC50) with Ramos cells was more than 5.00. In addition, at F1F0-ATPase, the pIC50 was more than 5.00.
With `O=C(N=C(Nc1cc(C(F)(F)F)n[nH]1)NC1CCCC1)c1ccc(F)cc1` [Compound A-548], in the experiment on Ramos cells (Homo sapiens), the pEC50 is more than 5.00. Besides, the negative logarithm of the IC50 (pIC50) on F1F0-ATPase is more than 5.00.
`Cc1ccc(C(=O)N=C(NCc2ccc(F)cc2Cl)Nc2cc(C(F)(F)F)n[nH]2)cc1` [Compound A-549]: the negative logarithm of the EC50 (pEC50) with Ramos cells (Homo sapiens) was more than 5.00. The pIC50 on F1F0-ATPase is more than 5.00.
For `Cc1ccc(C(=O)/N=C(\Nc2cc(-c3ccc(F)cc3)[nH]n2)NC(C)(C)C)cc1` [Compound A-550], in the experiment on Ramos cells, the pEC50 was more than 5.00. The pIC50 at F1F0-ATPase is more than 5.00.
With `Cc1cccc(C(=O)/N=C(/NCc2ccc(F)cc2Cl)Nc2cc(C(F)(F)F)[nH]n2)c1` [Compound A-551], in the experiment with Ramos cells, the negative-log EC50 (pEC50) was more than 5.00. Moreover, the negative-log IC50 (pIC50) on F1F0-ATPase is more than 5.00.
As for `Cc1cccc(C(=O)N=C(Nc2cc(-c3ccc(F)cc3)n[nH]2)NC(C)(C)C)c1` [Compound A-552], in the experiment on Ramos cells (Homo sapiens), the negative logarithm of the EC50 (pEC50) is more than 5.00. Also, the pIC50 at F1F0-ATPase is more than 5.00.
Regarding `Cc1ccc(C(=O)N=C(NCc2ccc(F)cc2Cl)Nc2cc(C(F)(F)F)n[nH]2)cc1F` [Compound A-553], the negative-log EC50 (pEC50) in the experiment on Ramos cells (Homo sapiens) is more than 5.00. The negative-log IC50 (pIC50) on F1F0-ATPase was more than 5.00.
Regarding `Cc1ccc(C(=O)/N=C(\Nc2cc(-c3ccc(F)cc3)[nH]n2)NC(C)(C)C)cc1F` [Compound A-554], the pEC50 with Ramos cells is more than 5.00. Also, at F1F0-ATPase, the negative logarithm of the IC50 (pIC50) was more than 5.00.
As for `Cc1cc(C(=O)/N=C(/NCc2ccc(F)cc2Cl)Nc2cc(C(F)(F)F)[nH]n2)ccc1F` [Compound A-555], the negative-log EC50 (pEC50) in the experiment with Ramos cells was more than 5.00. In addition, the negative-log IC50 (pIC50) on F1F0-ATPase is more than 5.00.
Regarding `Cc1cc(C(=O)N=C(Nc2cc(-c3ccc(F)cc3)n[nH]2)NC(C)(C)C)ccc1F` [Compound A-556], in the experiment on Ramos cells (Homo sapiens), the negative logarithm of the EC50 (pEC50) was more than 5.00. Also, the pIC50 at F1F0-ATPase is more than 5.00.
With `O=C(/N=C(\Nc1cc(C(F)(F)F)[nH]n1)NC1CCC(O)CC1)c1ccc(Cl)c(F)c1` (stereo not drawn) [Compound A-557], in the experiment on Ramos cells, the negative logarithm of the EC50 (pEC50) was less than 5.00. On F1F0-ATPase, the negative-log IC50 (pIC50) is less than 5.00.
Take `O=C(N=C(Nc1cc(C(F)(F)F)n[nH]1)NC1CCC(F)(F)CC1)c1ccc(Cl)c(F)c1` [Compound A-558]: the pEC50 with Ramos cells (Homo sapiens) was more than 5.00. Moreover, on F1F0-ATPase, the negative-log IC50 (pIC50) was more than 5.00.
As for `O=C(N=C(Nc1cc(C(F)(F)F)n[nH]1)NC1CCC(O)CC1)c1ccc(F)c(F)c1` (stereo not drawn) [Compound A-559], the pEC50 in the experiment on Ramos cells (Homo sapiens) was less than 5.00. Also, the pIC50 at F1F0-ATPase is less than 5.00.
On to `O=C(/N=C(\Nc1cc(C(F)(F)F)[nH]n1)NC1CCC(O)CC1)c1ccc(C(F)(F)F)cc1` (stereo not drawn) [Compound A-560], for which the negative logarithm of the EC50 (pEC50) in the experiment on Ramos cells is less than 5.00. The pIC50 on F1F0-ATPase was more than 5.00.
Regarding `O=C(/N=C(\Nc1cc(C(F)(F)F)[nH]n1)NC1CCC(F)(F)CC1)c1ccc(C(F)(F)F)cc1` [Compound A-561], the pEC50 with Ramos cells is more than 5.00. Besides, at F1F0-ATPase, the pIC50 was more than 5.00.
Take `O=C(/N=C(/NCC(O)CO)Nc1cc(C(F)(F)F)n[nH]1)c1ccc(F)cc1` (stereo not drawn) [Compound A-562, (Z)—N-(((2,3-Dihydroxypropyl)amino)((3-(trifluoromethyl)-1H-pyrazol-5-yl)amino)methylene)-4-fluorobenzamide]: in the experiment on Ramos cells (Homo sapiens), the negative-log EC50 (pEC50) was less than 5.00. The pIC50 on F1F0-ATPase is less than 5.00.
Consider `CC(C)(C)N/C(=N/C(=O)c1ccc(C(F)(F)F)cc1)Nc1cc(-c2ccccc2O)n[nH]1` [Compound A-563, (Z)—N-((tert-Butylamino)((3-(2-hydroxyphenyl)-1H-pyrazol-5-yl)amino)methylene)-4-(trifluoromethyl)benzamide], for which the negative-log EC50 (pEC50) with Ramos cells (Homo sapiens) was more than 5.00. Moreover, the negative logarithm of the IC50 (pIC50) on F1F0-ATPase was more than 5.00.
With `CC(C)(C)N/C(=N/C(=O)c1ccc(C(F)(F)F)cc1)Nc1cc(-c2cccc(O)c2)n[nH]1` [Compound A-564, (Z)—N-((tert-Butylamino)((3-(3-hydroxyphenyl)-1H-pyrazol-5-yl)amino)methylene)-4-(trifluoromethyl)benzamide], in the experiment on Ramos cells (Homo sapiens), the negative-log EC50 (pEC50) is more than 5.00. In addition, the negative logarithm of the IC50 (pIC50) on F1F0-ATPase was more than 5.00.
As for `CC(C)(C)N/C(=N/C(=O)c1ccc(C(F)(F)F)cc1)Nc1cc(C(=O)O)n[nH]1` [Compound A-565, (Z)-5-(3-(tert-Butyl)-2-(4-(trifluoromethyl)benzoyl)guanidino)-1H-pyrazole-3-carboxylic acid], in the experiment with Ramos cells (Homo sapiens), the pEC50 was less than 5.00. For the same molecule, at F1F0-ATPase, the pIC50 is less than 5.00.
